Laboratory results: patent US12290526B2 (priority 2018, dated 2025)

Key:
[1] = system: gout induced by intra-articular uric acid at 20% in rats; assay: PIFIR model (pain-induced functional impairment, uric acid 20%), analgesic activity after topical administration; type: in vivo, Female Wistar rats; conditions: for ability to walk and visible adverse effects: doses used (3.2-31.6 mg/Kg topical), observation period of 5 h
Excerpt: Female Wistar rats [Crl:(WI)BR] were employed with a weight of between 180 and 200 g. All the experimental procedures followed the recommendations of the committee for Research and Ethical Issues of the International Association for the Study of Pain and the Guidelines on Ethical Standards for Investigations of Experiment Pain in Animals. The number of animals for experimentation was kept to a minimum: 6 rats per experimental point. The animals were kept in a room with alternating dark/light cycles.
Twelve hours before the experiments, the fur that covers the rats' major muscle group that covers the femur (4 cm×4 cm) on the outer side of the hind right paw was very carefully clipped with some scissors, leaving the fur cut to a maximum length of 2 mm and taking care not to injure the rats' skin. Food was also removed at this moment, leaving them only free access to water. All the experiments were performed during the light phase, with the animals only being used once.
The analgesic effects are assessed employing the PIFIR model, in other words, the rats were anesthetized in a glass desiccator, saturated with ether vapor. The gout was induced by applying an intra-articular injection (i.a.) of 0.05 ml of uric acid suspended in mineral oil in the right hind member, exactly in the femur-tibia-kneecap joint. A 1 mL glass syringe with a 4-mm-long No. 22 needle is used for the intra-articular injection. Immediately afterwards, an electrode is attached to each hind paw in the middle of the plantar calluses. The rats were left to recover from the anesthesia and placed in a 30-cm-diameter rotary stainless-steel cylinder. The cylinder was turned at 4 r.p.m., forcing the rats to walk for 3 min every half hour, for a total of 5 hours. The variable measured was the contact time of each one of the rats' hind paws in the cylinder. When the electrode makes contact with the cylinder a circuit is closed and the ratio between the contact time of the injured paw in respect of the uninjured one was recorded on a computer.
The temporary courses of each treatment for 5 continuous hours were determined, employing an “n” of 6 rats per treatment. For the purpose of this study, inducing harm in the experimental animals was unavoidable. However, care was taken to avoid causing unnecessary suffering to the animals. At the end of the experimental determinations, the rats were immediately sacrificed.
From the aforementioned experimental model, the results obtained from the analgesic assessment of the combination are expressed as a Functionality Index percentage (FI %). This FI % is the ratio obtained by dividing the contact time of the limb with uric acid by the contact time of the limb against of the same rats, and multiplying the result by 100. The temporary course (TC) curves are built by plotting FI % or Dysfunction against time (h). The analgesic or antinociceptive effect was estimated as the recuperation of FI %. […] All the values plotted in the figures correspond to the mean±error standard for 6 animals.

[2] = cited from earlier work
[3] = cited from earlier work; remark: listed apart in the source
[4] = 31.6 mg/Kg topical administration

| SMILES | maximum effect (Emax), recovery of Functionality Index percentage (FI %) ([1]; 31.6 mg/Kg topical administration, rats, uric acid 20%, 5 h observation, mean ± standard error, n=6) | analgesic effects in temporary courses (in words) ([1]; 3.16, 5.62, 10.0, 17.78 and 31.62 mg/Kg topical administration) | ability to walk and visible adverse effects [1] | time over which the concentration in the top skin layers slowly declines ([2]; after the drug product is removed from the skin) | amount of aceclofenac absorbed, of the total dose applied ([2]; applied to the skin) | amount retained on the top layers of skin, of the dose applied ([2]; applied to the skin) | analgesic effects in temporary course (in words) [1, 4] | time point of the maximum effect [1, 4] | analgesic effects in temporary courses (in words) ([1]; 3.16, 10.0 and 17.8 mg/Kg topical administration) | solubility in water [3] |
| --- | --- | --- | --- | --- | --- | --- | --- | --- | --- | --- |
| O=C(O)COC(=O)Cc1ccccc1Nc1c(Cl)cccc1Cl [aceclofenac, (2-{2-[(2,6-Dichlorophenyl)amino]phenyl}acetoxy) acetic acid] | 42.0±6.9% | does show analgesic effects | did not affect the ability of the rats to walk during the observation period or cause any visible adverse effect | more than 16 hours | 13% | 6 to 9% |  |  |  |  |
| C[C@H]1C[C@H]2[C@@H]3CCC4=CC(=O)C=C[C@]4(C)[C@@]3(F)[C@@H](O)C[C@]2(C)[C@@]1(O)C(=O)CO [betamethasone, (11ß,16ß)-9-fluoro-11,17,21-trihydroxy-16-methylpregna-1,4-diene-3,20-dione] |  |  | did not affect the ability of the rats to walk during the observation period or cause any visible adverse effect |  |  |  | modest analgesic effects | 3.5 h | does not generate analgesic effects | insoluble in water |
